Several values for one entry are separate records, joined by “and”; a condition that tells them apart may be missing. Identical values can stand only once. Like-named read-outs stand apart in the source and are kept apart here.
Columns and labels:
SFRP-1 [1] = target: T1, SFRP-1 (Homo sapiens, UniProt Q8N474); experiment: Fluorescence polarization binding assay (competitive displacement of a probe compound from SFRP-1); settings: fluorescence anisotropy, 45 nM SFRP-1, 20 nM probe;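 note: test compound competes with a fluorescent probe held by SFRP-1, seen as a drop in probe anisotropy after incubation in darkness, with anisotropy as function of rising compound dose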
T1 sequence (Q8N474 32-314): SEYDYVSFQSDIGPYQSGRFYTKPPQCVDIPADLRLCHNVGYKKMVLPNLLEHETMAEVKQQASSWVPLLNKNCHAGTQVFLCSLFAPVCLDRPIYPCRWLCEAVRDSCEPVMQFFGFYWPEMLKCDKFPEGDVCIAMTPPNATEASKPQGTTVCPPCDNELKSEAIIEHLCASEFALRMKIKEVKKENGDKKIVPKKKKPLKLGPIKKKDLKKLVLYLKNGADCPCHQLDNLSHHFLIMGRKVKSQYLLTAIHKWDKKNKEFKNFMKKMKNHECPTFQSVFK

SFRP-1 [2] = target: T1, SFRP-1; experiment: Cell-based assay for in vitro measurement of SFRP-1/SARP2 antagonist activity (U2OS cells co-transfected with 16x TCF-tk-Luciferase reporter, Wnt and hSFRP-1); settings: for fold induction at 15 µM / fold induction at 10 µM: U2OS; for fold induction at 10 µM: read-out: Fold Induction with SFRP-1, U2OS cells, single dose 10 μM, luciferase reporter, fold induction over SFRP-1 control;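 for all read-outs here: U2OS cells co-transfected with a TCF-tk luciferase reporter, a Wnt vector, hSFRP-1 or empty vector and CMV-βgal, luciferase luminescence read in cell lysates alongside βgal activity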
[3] = read-out: Fold Induction with SFRP-1, Conc 15 μM, with SFRP-1, fold induction over SFRP-1 control, single dose
[4] = read-out: Fold Induction without SFRP-1, Conc 15 μM, without SFRP-1, single dose
[5] = read-out: Fold Induction with SFRP-1, Conc 15 μM, single dose, luciferase reporter, fold induction over SFRP-1 control, cells with SFRP-1
[6] = read-out: Fold Induction without SFRP-1, Conc 15 μM, single dose, luciferase reporter, cells without SFRP-1 (specificity control)

## Cc1ccc(S(=O)(=O)c2cc(Cl)cc(Cl)c2)cc1S(=O)(=O)NCCCn1ccnc1 [Example 344, 5-[(3,5-dichlorophenyl)sulfonyl]-N-[3-(1H-imidazol-1-yl)propyl]-2-methylbenzenesulfonamide]
SFRP-1 [1]
  IC50: 1400 nM
SFRP-1 [2]; [3]
  fold induction at 15 µM: 2.2
SFRP-1 [2]; [4]
  fold induction at 15 µM: 1

## CCNC(=O)N1CCC(NS(=O)(=O)c2cc(S(=O)(=O)c3ccccc3)ccc2C)CC1 [Example 501, N-ethyl-4-({[2-methyl-5-(phenylsulfonyl)phenyl]sulfonyl}amino)piperidine-1-carboxamide]
SFRP-1 [1]
  IC50: 4000 nM
SFRP-1 [2]; [5]
  fold induction at 15 µM: 2.5
SFRP-1 [2]; [6]
  fold induction at 15 µM: 0.9

## CC(C)c1ccc(S(=O)(=O)c2ccc(F)cc2)cc1S(=O)(=O)NCCc1ccccn1 [Example 320, 5-[(4-fluorophenyl)sulfonyl]-2-isopropyl-N-(2-pyridin-2-ylethyl)benzenesulfonamide]
SFRP-1 [1]
  IC50: 900 nM
SFRP-1 [2]; [3]
  fold induction at 15 µM: 2.8
SFRP-1 [2]; [4]
  fold induction at 15 µM: 1.2

## CCc1ccc(S(=O)(=O)c2ccccc2)cc1S(=O)(=O)NCCN1CCOCC1 [Example 226, 2-ethyl-N-(2-morpholin-4-ylethyl)-5-(phenylsulfonyl)benzenesulfonamide]
SFRP-1 [1]
  IC50: 2600 nM
SFRP-1 [2]; [3]
  fold induction at 15 µM: 3
SFRP-1 [2]; [4]
  fold induction at 15 µM: 0.7

## Cc1cccc(Cl)c1S(=O)(=O)c1ccc(C(C)C)c(S(=O)(=O)NCCc2ccccn2)c1 [Example 578, 5-[(2-chloro-6-methylphenyl)sulfonyl]-2-isopropyl-N-(2-pyridin-2-ylethyl)benzenesulfonamide]
SFRP-1 [1]
  IC50: 600 nM
SFRP-1 [2]; [5]
  fold induction at 15 µM: 2.8
SFRP-1 [2]; [6]
  fold induction at 15 µM: 1.2

## CN(CCNS(=O)(=O)c1cc(S(=O)(=O)c2ccccc2)ccc1C(F)(F)F)C(=O)NC1CCN(C(=O)CCC(=O)O)CC1 [Example 980, 4-{4-[({methyl[2-({[5-(phenylsulfonyl)-2-(trifluoromethyl)phenyl]sulfonyl}amino)ethyl]amino}carbonyl)amino]piperidin-1-yl}-4-oxobutanoic acid]
SFRP-1 [1]
  IC50: 400 nM
SFRP-1 [2]
  EC50: 853 nM

## Cc1ccc(S(=O)(=O)c2ccccc2)cc1S(=O)(=O)NC1CCN(C(=O)c2cccs2)CC1 [Example 497, 2-methyl-5-(phenylsulfonyl)-N-[1-(2-thienylcarbonyl)piperidin-4-yl]benzenesulfonamide]
SFRP-1 [1]
  IC50: 1300 nM and 1700 nM
SFRP-1 [2]; [5]
  fold induction at 15 µM: 2.4
SFRP-1 [2]; [6]
  fold induction at 15 µM: 1

## COc1cccc(OC)c1C(=O)N1CCC(NS(=O)(=O)c2cc(S(=O)(=O)c3ccccc3)ccc2C(F)(F)F)CC1 [Example 707, N-[1-(2,6-dimethoxybenzoyl)piperidin-4-yl]-5-(phenylsulfonyl)-2-(trifluoromethyl)benzenesulfonamide]
SFRP-1 [1]
  IC50: 200 nM
SFRP-1 [2]
  EC50: 187 nM
  fold induction at 10 µM: 4.2

## CC(C)(C)OC(=O)N1C[S+]([O-])C[C@H]1C(=O)N1CCC(NS(=O)(=O)c2cc(S(=O)(=O)c3ccccc3)ccc2C(F)(F)F)CC1 (stereo partly drawn) [Example 1061, tert-butyl (4R)-4-{[4-({[5-(phenylsulfonyl)-2-(trifluoromethyl)phenyl]sulfonyl}amino)piperidin-1-yl]carbonyl}-1,3-thiazolidine-3-carboxylate 1-oxide]
SFRP-1 [1]
  IC50: 20 nM
SFRP-1 [2]
  EC50: 78 nM

## O=C(c1ccc(F)cc1Cl)N1CCC(NS(=O)(=O)c2cc(S(=O)(=O)c3ccccc3)ccc2C(F)(F)F)CC1 [Example 716, N-[1-(2-chloro-4-fluorobenzoyl)piperidin-4-yl]-5-(phenylsulfonyl)-2-(trifluoromethyl)benzenesulfonamide]
SFRP-1 [1]
  IC50: 300 nM
SFRP-1 [2]
  EC50: 1760 nM
  fold induction at 10 µM: 4.2

## CC(C)c1ccc(S(=O)(=O)c2ccc(F)cc2)cc1S(=O)(=O)NC1CCSCC1 [Example 815, 5-[(4-fluorophenyl)sulfonyl]-2-isopropyl-N-(tetrahydro-2H-thiopyran-4-yl)benzenesulfonamide]
SFRP-1 [1]
  IC50: 1800 nM
SFRP-1 [2]
  fold induction at 10 µM: 2.2

## CC(C)c1ccc(S(=O)(=O)c2ccc(N(C)C)cc2)cc1S(=O)(=O)NCC1CCOCC1 [Example 545, 5-{[4-(dimethylamino)phenyl]sulfonyl}-2-isopropyl-N-(tetrahydro-2H-pyran-4-ylmethyl)benzenesulfonamide]
SFRP-1 [1]
  IC50: 2000 nM and 4000 nM
SFRP-1 [2]; [5]
  fold induction at 15 µM: 2.5
SFRP-1 [2]; [6]
  fold induction at 15 µM: 1.1

## Cc1ccc(S(=O)(=O)c2ccccc2)cc1S(=O)(=O)NC1CCN(C(=O)c2cccc(C#N)c2)CC1 [Example 477, N-[1-(3-cyanobenzoyl)piperidin-4-yl]-2-methyl-5-(phenylsulfonyl)benzenesulfonamide]
SFRP-1 [1]
  IC50: 2200 nM
SFRP-1 [2]; [3]
  fold induction at 15 µM: 2.1
SFRP-1 [2]; [4]
  fold induction at 15 µM: 1

## O=S(=O)(NC1CCNC1)c1cc(S(=O)(=O)c2ccccc2)ccc1C(F)(F)F (centres unmarked) [Example 840, 5-(phenylsulfonyl)-N-pyrrolidin-3-yl-2-(trifluoromethyl)benzenesulfonamide]
SFRP-1 [1]
  IC50: 800 nM
SFRP-1 [2]
  fold induction at 10 µM: 2.9

## CN(CCNS(=O)(=O)c1cc(S(=O)(=O)c2ccccc2)ccc1C(F)(F)F)C(=O)c1ccc(CP(=O)(O)O)cc1 [Example 1036, [4-({methyl[2-({[5-(phenylsulfonyl)-2-(trifluoromethyl)phenyl]sulfonyl}amino)ethyl]amino}carbonyl)benzyl]phosphonic acid]
SFRP-1 [1]
  IC50: 800 nM
SFRP-1 [2]
  EC50: 7640 nM

## CC(C)c1ccc([S+]([O-])c2ccccc2)cc1S(=O)(=O)NCCc1ccccn1 (centres unmarked) [Example 575, 2-isopropyl-5-(phenylsulfinyl)-N-(2-pyridin-2-ylethyl)benzenesulfonamide]
SFRP-1 [1]
  IC50: 1800 nM
SFRP-1 [2]; [5]
  fold induction at 15 µM: 2.6
SFRP-1 [2]; [6]
  fold induction at 15 µM: 1.1

## O=C(O)CCCNS(=O)(=O)c1cc(S(=O)(=O)c2ccccc2)ccc1C(F)(F)F [Example 893, 4-({[5-(phenylsulfonyl)-2-(trifluoromethyl)phenyl]sulfonyl}amino)butanoic acid]
SFRP-1 [1]
  IC50: 700 nM
SFRP-1 [2]
  fold induction at 10 µM: 1.8

## COC(=O)[C@H]1CC[C@H](CNS(=O)(=O)c2cc(S(=O)(=O)c3ccccc3)ccc2C(F)(F)F)CC1 [Example 947, methyl trans-4-[({[5-(phenylsulfonyl)-2-(trifluoromethyl)phenyl]sulfonyl}amino)methyl]cyclohexanecarboxylate]
SFRP-1 [1]
  IC50: 400 nM
SFRP-1 [2]
  EC50: 695 nM
  fold induction at 10 µM: 3.2

## COC(=O)c1ccc(CNS(=O)(=O)c2cc(S(=O)(=O)c3ccccc3)ccc2C(F)(F)F)cc1 [Example 950, methyl 4-[({[5-(phenylsulfonyl)-2-(trifluoromethyl)phenyl]sulfonyl}amino)methyl]benzoate]
SFRP-1 [1]
  IC50: 1800 nM
SFRP-1 [2]
  EC50: 1840 nM
  fold induction at 10 µM: 2.6

## CC(C)c1ccc(S(=O)(=O)c2ccc(F)cc2)cc1S(=O)(=O)NC1CCN(C(=O)OC(C)(C)C)CC1 [Example 517, tert-butyl 4-[({5-[(4-fluorophenyl)sulfonyl]-2-isopropylphenyl}sulfonyl)amino]piperidine-1-carboxylate]
SFRP-1 [1]
  IC50: 1600 nM
SFRP-1 [2]; [5]
  fold induction at 15 µM: 2.2
SFRP-1 [2]; [6]
  fold induction at 15 µM: 1

## CN(CCNS(=O)(=O)c1cc(S(=O)(=O)c2ccccc2)ccc1C(F)(F)F)C(=O)Nc1ccc(F)cc1F [Example 832, N-{2-[{[(2,4-difluorophenyl)amino]carbonyl}(methyl)amino]ethyl}-5-(phenylsulfonyl)-2-(trifluoromethyl)benzenesulfonamide]
SFRP-1 [1]
  IC50: 250 nM
SFRP-1 [2]
  EC50: 2190 nM
  fold induction at 10 µM: 3.4

## N#CCCNS(=O)(=O)c1cc(S(=O)(=O)c2ccc(O)cc2)ccc1C(F)(F)F [Example 821, N-(2-cyanoethyl)-5-[(4-hydroxyphenyl)sulfonyl]-2-(trifluoromethyl)benzenesulfonamide]
SFRP-1 [1]
  IC50: 300 nM
SFRP-1 [2]
  EC50: 626 nM
  fold induction at 10 µM: 5.1

## Cc1ccc(S(=O)(=O)c2ccccc2)cc1S(=O)(=O)NC1CCN(C(=O)c2cccc(C(F)(F)F)c2)CC1 [Example 465, 2-methyl-5-(phenylsulfonyl)-N-{1-[3-(trifluoromethyl)benzoyl]piperidin-4-yl}benzenesulfonamide]
SFRP-1 [1]
  IC50: 4000 nM
SFRP-1 [2]; [3]
  fold induction at 15 µM: 1.9
SFRP-1 [2]; [4]
  fold induction at 15 µM: 1.1

## O=S(=O)(NCCn1ccnc1)c1cc(S(=O)(=O)c2ccccc2F)ccc1C(F)(F)F [Example 845, 5-[(2-fluorophenyl)sulfonyl]-N-[2-(1H-imidazol-1-yl)ethyl]-2-(trifluoromethyl)benzenesulfonamide]
SFRP-1 [1]
  IC50: 500 nM
SFRP-1 [2]
  EC50: 807 nM
  fold induction at 10 µM: 3.8

## O=C(c1ccc(F)cc1)N1CCC(NS(=O)(=O)c2cc(S(=O)(=O)c3ccccc3)ccc2Cl)CC1 [Example 656, 2-chloro-N-[1-(4-fluorobenzoyl)piperidin-4-yl]-5-(phenylsulfonyl)benzenesulfonamide]
SFRP-1 [1]
  IC50: 2800 nM
SFRP-1 [2]
  EC50: 11700 nM
  fold induction at 10 µM: 2.2

## N=C(N)Nc1ccc(CCNS(=O)(=O)c2cc(S(=O)(=O)c3ccccc3)ccc2C(F)(F)F)cc1 [Example 998, N-[2-(4-{[amino(imino)methyl]amino}phenyl)ethyl]-5-(phenylsulfonyl)-2-(trifluoromethyl)benzenesulfonamide]
SFRP-1 [1]
  IC50: 300 nM
SFRP-1 [2]
  EC50: 2200 nM

Reference: patent publication US20060276464A1, “Diarylsulfone sulfonamides and use thereof” (Wyeth, priority 2005, published 2006)
